From paper PMC12160547, “Identification of a Novel Small Molecule STING Agonist Reshaping the Immunomicroenvironment of Pancreatic Ductal Adenocarcinoma” (International Journal of Biological Sciences, 2025)

Columns and labels:
cGAS-STING pathway [1] = tested on: cGAS-STING pathway; parameters: method as in PMID 31036082; conditions: cited from earlier work
m-STING = molecular target: T1, m-STING (Mus musculus, UniProt Q3TBT3); assay: Raw-lucia reporter activation fold; type: cell-based
T1 construct: Raw-lucia Fold (50 μM); endogenous in cells; host or cells: RAW-Lucia
T1 sequence (Q3TBT3 1-378): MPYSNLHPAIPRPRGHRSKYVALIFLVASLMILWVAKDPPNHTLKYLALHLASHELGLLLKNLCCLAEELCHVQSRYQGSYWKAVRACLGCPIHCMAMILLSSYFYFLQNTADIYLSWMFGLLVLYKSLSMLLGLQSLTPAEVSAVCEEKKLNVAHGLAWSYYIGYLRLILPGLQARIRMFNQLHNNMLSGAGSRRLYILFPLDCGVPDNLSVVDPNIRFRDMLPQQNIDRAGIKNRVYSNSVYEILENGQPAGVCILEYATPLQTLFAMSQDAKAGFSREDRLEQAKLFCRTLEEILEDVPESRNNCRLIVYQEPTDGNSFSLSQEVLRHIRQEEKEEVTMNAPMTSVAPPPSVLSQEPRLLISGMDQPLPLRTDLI

STING signaling = assay: Relative gene expression in RAW-Lucia cells (RT-qPCR); type: cell-based, mouse
Procedure: (§1) RNA from tumor tissues or cells was extracted using the SteadyPure Universal RNA Extraction Kit (Accurate Biology) and reverse transcribed into cDNA with the Evo M-MLV Reverse Transcription Kit (Accurate Biology). Relative RNA expression levels were quantified using 2X Universal SYBR Green Fast qPCR Mix (Abclonal), and the results were recorded on the qTOWER®3 84 Real-Time PCR system.

[2] = Pharmacokinetic parameters, i.v. and p.o.; type: in vivo
h-STING = molecular target: T2, h-STING (Homo sapiens, UniProt Q86WV6, G230A/R293Q/R71H); assay: THP1-Dual reporter activation fold; type: cell-based
T2 construct: THP1-Dual Fold (10 μM); endogenous in cells; host or cells: THP1-Dual

[3] = cited from earlier work
cGAS-STING pathway [4] = assay: cGAS-STING pathway, IFN-β and ISG readout in pancreatic cancer organoids; type: cell-based, human; conditions: TBK1 inhibitor added to culture medium
Procedure: Tumor tissues or cells were thoroughly lysed in RIPA buffer containing protease and phosphatase inhibitors. The lysates were then centrifuged to collect the supernatant. Proteins were separated by electrophoresis in MOPS buffer and subsequently transferred onto a PVDF membrane. After blocking, the membrane was sequentially incubated with the primary antibody, secondary antibody, and chemiluminescent substrate (ECL) for imaging.
as §1
(§2) Multiplex cytokine detection was performed using Luminex cytokine bead array technology provided by WayenBio, Shanghai. In the mouse tumor model, levels of multiple cytokines were simultaneously measured and normalized to tumor weight. For the quantification of specific cytokines, such as IL-6 and IFN-β, enzyme-linked immunosorbent assay (ELISA) kits from Abclonal were used. The assays were conducted according to the manufacturer's instructions.

[5] = tested on: subcutaneous pancreatic tumor; assay: Subcutaneous pancreatic tumor model; type: in vivo, C57BL/6 mice; conditions: co-administered with D166
Procedure: C57BL/6 mice were obtained from Phenotek (Shanghai) and randomly assigned to groups, with a minimum of six mice per group. For the subcutaneous tumor model, approximately 5 × 10^5 tumor cells were suspended in 150 μL PBS and injected into the left flank of the mice. Tumor size was measured every four days starting from day 7 post-injection. On days 9, 12, and 15, the mice were administered three different concentrations of the drug via peritumoral injection, while the Control group received only the solvent. The mice were euthanized on day 25, and tumors were excised, weighed, and further analyzed.
as §2

T2 sequence (Q86WV6 whole entry R71H/G230A/R293Q): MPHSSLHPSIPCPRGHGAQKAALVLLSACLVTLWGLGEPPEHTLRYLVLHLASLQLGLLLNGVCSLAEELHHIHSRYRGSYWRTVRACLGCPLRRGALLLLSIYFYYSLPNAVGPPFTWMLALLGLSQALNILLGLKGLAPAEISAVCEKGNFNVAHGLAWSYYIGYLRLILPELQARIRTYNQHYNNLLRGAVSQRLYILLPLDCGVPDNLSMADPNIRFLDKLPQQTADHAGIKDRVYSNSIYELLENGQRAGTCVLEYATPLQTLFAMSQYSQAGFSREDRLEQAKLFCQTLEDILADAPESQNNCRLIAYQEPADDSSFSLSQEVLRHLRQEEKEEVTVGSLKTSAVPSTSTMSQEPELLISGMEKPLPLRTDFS

## Cc1ccc2c(=O)c3cccc(CC(=O)O)c3oc2c1C [DMXAA, 5,6-Dimethylxanthenone-4-acetic acid]
cGAS-STING pathway [1]
  species in which the cGAS-STING pathway is activated: only in mice

## COc1cc2cc(C(=O)CCC(=O)O)sc2cc1OC [MSA-2, reference compound]
m-STING
  Raw-lucia Fold (50 μM): 22.59 Fold
STING signaling
  Relative expression (Cxcl10/actin): 179.40 ± 2.58
  Relative expression (Ifnb/actin): 125.70 ± 3.06
[2]; i.v., average of three runs
  AUCInf: 1372 ng·h/mL
  CL: 12.3 mL/min/kg
  MRTInf: 15.6 min
  T1/2: 39.6 min
  Vz: 0.70 L/kg
[2]; p.o., average of three runs
  AUCInf: 2852 ng·h/mL
  MRTInf: 53.4 min
  T1/2: 65.4 min
[2]; p.o., oral bioavailability
  F: 69.3%
h-STING
  THP1-Dual Fold (10 μM): 43.09 Fold

## Nc1ncnc2c1ncn2[C@@H]1O[C@@H]2COP(=O)([S-])O[C@@H]3[C@H](O)[C@@H](COP([O-])(=S)O[C@H]2[C@H]1O)O[C@H]3n1cnc2c(N)ncnc21.[Na+].[Na+] (stereo partly drawn) [ADU-S100]
[3]
  reason for termination in phase I clinical trials: poor drug stability and systemic toxicity

## Nc1nc2c(ncn2[C@@H]2O[C@@H]3CO[P@@](=O)(S)O[C@H]4[C@H](F)[C@H](n5cnc6c(N)ncnc65)O[C@@H]4CO[P@@](=O)(S)O[C@@H]2[C@@H]3F)c(=O)[nH]1 [MK-1454]
[3]; single-agent treatment group
  efficacy in clinical study: limited efficacy as a monotherapy

## O=C(NCCCNc1nc(Nc2cccc(CN3CCOCC3)c2)ncc1C1CC1)C1CCC1 [MRT67037, reference compound]
cGAS-STING pathway [4]
  effect on D166-induced ISG activation in organoids: rescued the D166-induced ISG activation
[5]
  effect on the tumor-killing effect of D166: counteracted the tumor-killing effect of D166
